Patent US8821568B2, “Implant modified with non-hydroxylated vitamin D precursors” (Numat Biomedical S.L., priority 2008, dated 2014)

Tests used:
MC3T3-E1 cells = experiment: LDH activity (cytotoxicity) of cells on treated tissue culture plastic wells; type: cell-based, mouse; settings: TCP wells; after 24 hours; UV-treated (302 nm, 30 min); higher dose (20 nmols); compared to low control
Procedure: To treat tissue culture plastic (TCP) wells, 10 μl of each dilution treatment were left on the surfaces and were allowed to air-dry for 15 min in the sterile flow bench. For UV-irradiation, a UV lamp of 302 nm was used at an intensity of irradiation of 6 mW/cm^2 (UVP, Upland, Calif., USA) during 30 minutes. Treated surfaces were immediately used for cell culture experiments.
To test the effect of the different treatments onto the plastic wells, 96-well plates made of polystyrene were used and the treatments with 7-DHC performed directly onto them. Cells grown onto untreated TCP were added as a control for all the experiments. Cells were seeded at a density of 30,000 cells/cm^2 and they were maintained in α-MEM supplemented with 10% FCS and antibiotics. […]
Lactate dehydrogenase (LDH) activity in the culture media was used as an index of cell death. LDH activity was determined spectrophotometrically after 30 min incubation at 25° C. of 50 μl of culture and 50 μl of the reaction mixture by measuring the oxidation of NADH at 490 nm in the presence of piruvate following the manufacturer's protocol (Cytotoxicity Detection Kit (LDH), Roche Diagnostics, Mannheim, Germany). […]

[1] = HPLC quantification of 7-DHC and vitamin D3 on coated substrates before and after UV irradiation; type: physicochemical; settings: for m7-DHC (%): 100* m7-DHC/m7-DHC^0; for ηD3 (Vit D3 product yield): moles D3 after vs moles 7-DHC before irradiation
Procedure: Substrates (polystyrene, 96 well plate; or titanium, polished titanium disks, 6.2 mm diameter, 2 mm height, inserted in a 96 well plate) were covered with 0.2 nmol of 7-DHC and Vitamin E (7-DHC: VitE=20:1, m:m) by dropping 10 μl of a 7-DHC/VitE solution in absolute ethanol. After leaving the solvent to evaporate for 15 min, samples were UV irradiated for 15 min at 302 nm. The amounts of 7-DHC and D3 present in the surfaces were quantified by HPLC. Results were compared with substrates without Vit E and with non-irradiated surfaces. Pure ethanol was used as control for all groups. Sunlight exposure was avoided for all surfaces.
The coating of each surface was extracted by adding 100 μl of ‘methanol/acetonitrile/tetrahydrofurane/water’ (67:16:2:15, v:v) to each well and shaking the plate for 2 min at 20 rpm. The content of three replicate wells was mixed to give a sample of ≈300 μl. An aliquot of 100 μl of the sample was injected in the HPLC system. Two replicate samples were prepared and analyzed for each group.
The analysis were carried out using a Waters liquid chromatographic system (Milford, Mass., USA), equipped with a refrigerated automatic injector WISP700 and a 600 pump system, connected to a Waters 996 photodiode array (PDA) detector. The software Empower was used for instrument control and data analysis. Detection was carried out at 282 nm.
A Nova Pak C18 column (Waters) was used to separate sample components before detection. The column temperature was set to 30° C. Two solvents, A: ‘methanol/acetonitrile/tetrahydrofurane/water (67:16:2:15, v:v), and B: ‘methanol/acetonitrile/tetrahydrofurane’ (75:20:5, v:v) were used in gradient elution mode as the mobile phase. Solvents A and B were vacuum-filtered through a Nylon membrane (0.45 μm pore diameter) and degassed before use. The mobile phase flow rate was 1 ml·min^−1. The binary gradient used was as follows: from 5% B to 90% B in three minutes, held for 9.5 min at 90% B, from 90% B to 5% B in one minute and equilibrated between injections at the initial conditions for 5 min (total run time=15 min+5 min equilibration between injections).
Quantification was performed by integration of the peak area of the corresponding analyte and interpolation of the peak area in 7-DHC or Vit D3 standard curves.

[2] = Polystyrene, irradiated, UV 302 nm 15 min
[3] = Titanium, irradiated, UV 302 nm 15 min

SMILES: CC(C)CCC[C@@H](C)[C@H]1CC[C@H]2C3=CC=C4C[C@@H](O)CC[C@]4(C)[C@H]3CC[C@]12C [7-DHC, 7-dehydrocholesterol]
- Cytotoxicity (LDH activity in culture media) (MC3T3-E1 cells): toxic effect
- m7-DHC [1, 2]: 29.2 ± 2.0 ng/well
- mD3 [1, 2]: 11.8 ± 0.4 ng/well
- m7-DHC (%) [1, 2]: 29%
- ηD3 (Vit D3 product yield) [1, 2]: 13.1 ± 0.4%
- m7-DHC ([1]; Polystyrene, non irradiated): 90.1 ± 2.9 ng/well
- m7-DHC (%) ([1]; Polystyrene, non irradiated): 88%
- m7-DHC [1, 3]: 42.1 ± 3.4 ng/well
- mD3 [1, 3]: 16.4 ± 0.7 ng/well
- m7-DHC (%) [1, 3]: 39%
- ηD3 (Vit D3 product yield) [1, 3]: 16.4 ± 0.7%
- m7-DHC ([1]; Titanium, non irradiated): 99.9 ± 3.0 ng/well
- m7-DHC (%) ([1]; Titanium, non irradiated): 92%
